# Results taken from patent US6780622B2, “Diterpene cyclase and methods of use” (Florida Atlantic University, priority 2002, dated 2004).
# Non-standard residues stand in square brackets, D forms with d. Residues, ends and D or L forms follow the SMILES beside them. *: point of attachment. Sta = CC(C)C[C@H](N)[C@@H](O)CC(=O)O; Isovaleryl = CC(C)CC(=O)*
# Assay: Cyclization of 3H-GGPP by purified elisabethatriene cyclase-containing chromatography fractions
# Format: biochemical, Pseudopterogorgia elisabethae
# Details: judged by the formation of pseudopterosins
# Method: An example of a method for cyclizing GGPP to elisabethatriene includes the steps of providing purified elisabethatriene cyclase and contacting the GGPP substrate with the purified elisabethatriene cyclase under reaction conditions that result in the production of elisabethatriene. Any suitable reaction conditions that result in the production of elisabethatriene may be used. For example, ^3H-GGPP (1 μCi) is incubated with a suitable amount of purified elisabethatriene cyclase at 27° C. for 1-4 hours.
# To purify enzymatically active elisabethatriene cyclase, CFE samples were subjected to DEAE ion-exchange chromatography, phenyl sepharose chromatography, hydroxyapatite chromatography, and UNO™ [2-Propen-1-aminium, N,N,-dimethyl-N-2-propenyl-, chloride, polymer with 1,4-bis(1-oxo-2-propenyl)piperazine and 2-methyl-2-propenamide] ion exchange chromatography (Bio-Rad Laboratories, Hercules, Calif.). Active fractions were obtained in all cases. Fractions resulting from these purification techniques were concentrated by ultracentrifugation, and then 0.5-100 μg (brought up to a total volume of 500 μl) was assayed for enzymatic activity by incubation with 1 μCi [1]^3H-GGPP for 1 hour in 20 mM Tris buffer (pH 7.7, 3 mM EDTA, 5 mM β-mercaptoethanol, 5 mM MgCl2). Samples were quenched, extracted with 500 μl hexanes and partially purified by passing through a small silica gel pasteur pipette column. Elisabethatriene was then added as “cold carrier” and incubations were purified by high-performance liquid chromatography (HPLC). […] Radioactivity in HPLC fractions was quantified by scintillation counting.
# Using elisabethatriene cyclase purified by column chromatography as described in Example 1, GGPP was cyclized to elisabethatriene. To carry out the reaction, incubations were performed by incubating ^3H-GGPP(1 μCi) with purified elisabethatriene cyclase-containing fractions from chromatography columns at 27° C. for 1-4 hours.
row,effect of adding protease inhibitors on enzymatic activity of the fractions,SMILES
1,did not increase the enzymatic activity,CC(C)C[C@H](NC(=O)[C@@H](NC(=O)N[C@@H](Cc1ccccc1)C(=O)O)[C@@H]1CCN=C(N)N1)C(=O)N[C@H](C=O)Cc1ccccc1 [chymostatin]
2,did not increase the enzymatic activity,CC(=O)N[C@@H](CC(C)C)C(=O)N[C@@H](CC(C)C)C(=O)N[C@H](C=O)CCCNC(=N)N [leupeptin]
3,did not increase the enzymatic activity,CC(C)CC(=O)N[C@H](C(=O)N[C@H](C(=O)N[C@@H](CC(C)C)[C@@H](O)CC(=O)N[C@@H](C)C(=O)N[C@@H](CC(C)C)[C@@H](O)CC(=O)O)C(C)C)C(C)C [pepstatin] (Isovaleryl-VV[Sta]A[Sta]-OH)
